Assay results reported in publication PMC5036131, “Fragment-based discovery of a new family of non-peptidic small-molecule cyclophilin inhibitors with potent antiviral activities” (Nature Communications, 2016).
Where two headings read alike, the source gives them in different places. One block for each compound: values may come before it.

Legend:
[1] = biological target: CypD (Homo sapiens, UniProt P30405, K175I); test: PPIase enzyme assay (chymotrypsin-coupled), CypD; conditions: for LE (ligand efficiency): Supplementary Figure 1, NMR fragment hits
[2] = biological target: T1, CypB (Homo sapiens, UniProt P23284); test: biochemical; type: biochemical
T1 construct: hexahistidine tag (His-Tag) (C); made in house; host or cells: E. coli C41(DE3)
Experimental: (§1) CypA and CypB proteins carrying a hexahistidine tag (His-Tag) at their carboxy terminus were expressed in E. coli and purified. Briefly, cultures of C41(DE3) cells were grown at 37 °C for 1 h until the culture reached an OD of 0.6 at 600 nm and then induced with 1 mM isopropyl-β-D-thiogalactopyranoside for 4 h at 37 °C (CypA) or overnight at 22 °C (CypB). Cell pellets were resuspended in a lysis buffer 20 mM NaH2PO4 pH 7.8, 300 mM NaCl, 7 mM β-mercaptoethanol, 1 mg ml^−1 lysozyme, 0.1 U μl^−1 desoxyribonuclease and complete protease inhibitor tablets (Roche Diagnostics Corporation, Indianapolis, Indiana). […] The bound protein was eluted in 1 ml fractions with a buffer composed of 20 mM NaH2PO4 pH 7.8, 300 mM NaCl, 250 mM imidazole, 7 mM β-mercaptoethanol and 10% glycerol, monitored by the Bradford colorimetric assay. The purity of each cyclophilin was determined by Coomassie-stained SDS–PAGE analysis.

[3] = biological target: T2, CypA (Homo sapiens, UniProt P62937); test: PPIase enzyme assay (chymotrypsin-coupled), CypA; type: biochemical; conditions: 20 °C, mean±s.d.
T2 construct: hexahistidine tag (His-Tag) (C); made in house; host or cells: E. coli C41(DE3)
Experimental: as §1

[4] = test system: calcineurin; test: Calcineurin phosphatase assay; type: biochemical; conditions: binary complex with CypA, 1:1 molar ratio
Experimental: The inhibition of calcineurin phosphatase activity was measured by measuring the dephosphorylation of p-nitrophenyl phosphate (R&D Systems, Minneapolis, USA), according to the manufacturer’s instructions. […] After p-nitrophenyl phosphate addition, the reaction was run for 35 min at 37 °C. The reaction was terminated by addition of BIOMOL green reagent and OD was measured at 630 nm. The results are the means of three independent experiments performed in duplicate. They are presented as the percentage of calcineurin activity relative to that in the inhibitor-free control.

[5] = test system: MRC5 cells; test: Cellular toxicity in MRC5 cells; conditions: read-out: MRC5 cells CC50; MRC5 cells
[6] = test system: mPTP; design: method as in Panel M, Ahmed-Belkacem A, et al., manuscript in preparation; conditions: as a result of CypD inhibition; ref Panel M, Ahmed-Belkacem A, et al., manuscript in preparation; cited from earlier work
[7] = test system: Huh7 cells; test: Cellular toxicity in Huh7 replicon cells; conditions: read-out: HCV genotype 1b replicon CC50; Huh7 cells
[8] = test system: IL-2 production in Jurkat cells; test: Inhibition of IL-2 production in Jurkat cells; type: cell-based; conditions: stimulated Jurkat cells
[9] = test system: HCoV-229E; test: Anti-human coronavirus 229E activity in MRC5 cells; type: cell-based; conditions: 72 h, viral cytopathic effect
[10] = test system: HCV genotype 1b replicon; test: microbe, parasite or virus in culture; type: cell-based, hepatitis C virus
[11] = test system: MT4 cells; test: Cytotoxicity in uninfected MT4 cells; conditions: read-out: MT4 cells CC50
[12] = test system: HIV-IIIb; test: Anti-HIV activity in MT4 cells; type: cell-based, human immunodeficiency virus; conditions: 5 days
[13] = Cellular toxicity in MRC5 cells; conditions: human, MRC-5 cells
[14] = Cellular toxicity in Huh7 replicon cells; conditions: human, Huh7 cells with HCV genotype 1b replicon
[15] = biological target: cyclophilin PPIase activity; test: PPIase enzyme assay, cyclophilin not specified; type: biochemical, human; conditions: compounds lacking the ester function; read-out: cyclophilin inhibition IC50
[16] = in vitro; conditions: human
[17] = in vitro; conditions: human; remark: listed apart in the source
[18] = read-out: CypD IC50, PPIase enzyme assay, 20 °C, mean±s.d.
[19] = PPIase enzyme assay, 20 °C, mean±s.d., read-out: CypB IC50
[20] = Huh7 cells, 3 days, HCV RNA, read-out: HCV genotype 1b replicon EC50
[21] = wild-type genotype 1b replicon, comparison with mutated replicons (Table 3), read-out: EC50 HCV (WT) subgenomic replicon
[22] = Hepatitis C virus, Huh-7, 72 h, read-out: HCV genotype 1b replicon EC50

Sequence of CypD (P30405 44-207 K175I): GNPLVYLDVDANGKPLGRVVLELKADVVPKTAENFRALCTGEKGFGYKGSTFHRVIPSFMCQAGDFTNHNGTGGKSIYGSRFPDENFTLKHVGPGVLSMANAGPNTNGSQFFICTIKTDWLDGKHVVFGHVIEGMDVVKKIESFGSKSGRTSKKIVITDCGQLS
T2 sequence (P62937 whole entry): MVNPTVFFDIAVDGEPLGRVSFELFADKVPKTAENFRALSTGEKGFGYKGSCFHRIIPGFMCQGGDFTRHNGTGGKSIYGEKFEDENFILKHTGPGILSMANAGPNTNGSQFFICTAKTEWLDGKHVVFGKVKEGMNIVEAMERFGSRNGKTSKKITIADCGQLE
T1 sequence (P23284 34-216): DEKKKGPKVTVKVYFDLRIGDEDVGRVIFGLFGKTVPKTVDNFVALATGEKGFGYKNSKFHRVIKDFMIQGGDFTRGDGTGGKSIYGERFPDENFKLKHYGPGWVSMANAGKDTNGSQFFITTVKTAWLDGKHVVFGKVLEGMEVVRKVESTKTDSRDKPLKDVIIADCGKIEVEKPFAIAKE

% CypD inhibition (%I) at 1 mM [1]: 39% | LE (ligand efficiency) [1]: < 0.24
Structure (SMILES): Nc1ccc(S(=O)(=O)NC(=O)c2ccccc2)cc1 [Fragment 9]

Structure (SMILES): Nc1ccc(CNC(=O)NCC(=O)N2CCCC2c2cccc3ccccc23)cc1 (stereo not drawn) [Compound 28]
IC50 [1, 18]: 1.4 ± 0.2 µM | IC50 [2, 19]: 1.8 ± 0.9 µM | IC50 [3]: 1.5 ± 0.5 µM

Structure (SMILES): CSc1ccccc1C1CCCN1C(=O)C(NC(=O)NCc1ccc(N)cc1)c1ccccc1 (stereo not drawn) [Compound 31]
IC50 [1, 18]: 0.2 ± 0.08 µM | inhibition of calcineurin phosphatase activity [4]: no inhibition was observed | IC50 [2, 19]: 0.08 ± 0.04 µM | CC50 [5]: > 100 µM | mPTP opening [6]: inhibits mPTP opening | CC50 [7]: > 100 µM | IC50 [3]: 0.1 ± 0.07 µM | EC50 [8]: > 20 µM | EC50 [9]: 44.7 ± 2.2 µM | EC50 fold higher than the EC50 of alisporivir ([10]; HCV genotype 1b replicon, Huh7 cells): ~40 | EC50 [10, 20]: 0.4 ± 0.3 µM | EC50 [10, 21]: 0.3 ± 0.16 µM

Structure (SMILES): Nc1ccc(CNC(=O)NCC(=O)N2CCCC2c2ccccc2Cl)cc1 (stereo not drawn) [Compound 25]
IC50 [1, 18]: 6.2 ± 2.3 µM | IC50 [2, 19]: 3.7 ± 1.4 µM | IC50 [3]: 3.4 ± 0.7 µM

Structure (SMILES): Nc1ccc(CNC(=O)NCC(=O)N2CCCC2c2ccccc2Br)cc1 (stereo not drawn) [Compound 26]
CC50 [5]: > 100 µM | CC50 [11]: > 53 µM | CC50 [7]: > 100 µM | EC50 [9]: 66.3 ± 24 µM | EC50 [10, 20]: 6 ± 0.7 µM | EC50 [12]: 3.6 ± 0.8 µM

% CypD inhibition (%I) at 1 mM [1]: 32% | LE (ligand efficiency) [1]: < 0.46
Structure (SMILES): ON=Cc1ccccc1 [Fragment 8]

% CypD inhibition (%I) at 1 mM [1]: 32% | LE (ligand efficiency) [1]: < 0.42
Structure (SMILES): Nc1ccc(C(=O)O)cc1 [Fragment 3]

% CypD inhibition (%I) at 1 mM [1]: 40% | LE (ligand efficiency) [1]: < 0.29
Structure (SMILES): COC(=O)CS(=O)(=O)c1ccccc1 [Fragment 1]

Structure (SMILES): CCOC(=O)CNC(=O)NC1CCc2ccc(N)cc21 (stereo not drawn) [Compound 32]
IC50 [1]: 12.8 ± 2.5 µM | IC50 [2, 19]: 8.7 ± 1.5 µM | CC50 at 72 h [13]: > 100 µM | CC50 [14]: > 100 µM | IC50 [3]: 7.4 ± 6.8 µM | EC50 ([9]; Human coronavirus 229E): 71.5 ± 4.3 µM | EC50 [10, 22]: 8 ± 1.3 µM

% CypD inhibition (%I) at 1 mM [1]: 2%
Structure (SMILES): O=S1(=O)CC=CC1 [Fragment 2]

Structure (SMILES): Nc1ccc(CNC(=O)NCC(=O)N2CCCC2)cc1 [Compound 23]
IC50 [1, 18]: > 500 µM | IC50 [2, 19]: > 500 µM | IC50 [3]: > 500 µM | IC50 [15]: > 500 µM

Structure (SMILES): C/C=C/C[C@@H](C)[C@@H](O)[C@H]1C(=O)N[C@@H](CC)C(=O)N(C)[C@H](C)C(=O)N(CC)[C@@H](C(C)C)C(=O)N[C@@H](C(C)C)C(=O)N(C)[C@@H](CC(C)C)C(=O)N[C@@H](C)C(=O)N[C@H](C)C(=O)N(C)[C@@H](CC(C)C)C(=O)N(C)[C@@H](CC(C)C)C(=O)N(C)[C@@H](C(C)C)C(=O)N1C [Alisporivir, alisporivir, reference compound]
CC50 at 72 h [16]: 9.7 ± 2.2 µM | IC50 [1]: 0.03 ± 0.005 µM | CC50 [17]: 32.3 ± 22 µM | IC50 [2]: 0.04 ± 0.012 µM | IC50 [3]: 0.07 ± 0.003 µM | EC50 ([9]; Human coronavirus 229E): 2.6 ± 0.6 µM | EC50 [10, 22]: 0.01 ± 0.0007 µM | EC50 ([10]; Hepatitis C virus, Huh-7, read-out: EC50 HCV (WT) subgenomic replicon): 0.04 ± 0.0005 µM

Structure (SMILES): COc1ccccc1C1CCCN1C(=O)CNC(=O)NCc1ccc(N)cc1 (stereo not drawn) [Compound 24]
IC50 [1, 18]: 11.4 ± 3 µM | IC50 [2, 19]: 1.2 ± 0.1 µM | IC50 [3]: 2.8 ± 0.6 µM

Structure (SMILES): O=C(NC(=O)c1c(F)cccc1Cl)NC1c2ccccc2-c2ccccc21 [TMN-355, reference compound]
IC50 [1, 18]: > 100 µM | IC50 [2, 19]: > 100 µM | CC50 [5]: 1.04 ± 0.46 µM | CC50 [7]: 4.48 ± 2.1 µM | EC50 [10, 20]: > 50 µM

Structure (SMILES): O=CN1CCCC1 [Fragment 13]
IC50 [1, 18]: > 5000 µM | IC50 [2, 19]: > 5000 µM | IC50 [3]: > 5000 µM

Structure (SMILES): CSc1ccccc1C1CCCN1C(=O)CNC(=O)NCc1ccc(N)cc1 (stereo not drawn) [Compound 27]
IC50 [1, 18]: 0.6 ± 0.1 µM | CC50 [5]: > 100 µM | CC50 [11]: > 53 µM | CC50 [7]: > 100 µM | IC50 [3]: 0.4 ± 0.1 µM | EC50 [9]: 34.6 ± 18.3 µM | EC50 [10, 20]: 2.7 ± 2.5 µM | EC50 [10, 21]: 5.6 ± 0.7 µM | EC50 [12]: 6.8 ± 2.3 µM
